Assay results from PMC3860322 (Leukemia & lymphoma, 2013).

Experiments:
[1] = Plasma pharmacokinetics of 17-AAG and its metabolite 17-AG; assay type: in vivo, patients; conditions: for AUC exposed: combined AUC of 17-AAG and 17-AG
cytochrome P450 3A4 = conditions: cited from earlier work
acute myeloid leukemia = conditions: phase I trial in AML, after one cycle of therapy; cited from earlier work
[2] = metabolite 17-AG, day 1 (17-AAG alone), 17-AAG 150 mg/m^2, n=8
[3] = metabolite 17-AG, day 1 (17-AAG alone), 17-AAG 200 mg/m^2, n=3
[4] = metabolite 17-AG, day 4 (17-AAG+PS-341), 17-AAG 150 mg/m^2, n=8
[5] = metabolite 17-AG, day 4 (17-AAG+PS-341), 17-AAG 200 mg/m^2, n=3
[6] = 17-AAG in plasma, day 1 (17-AAG alone), 150 mg/m^2, n=8
[7] = 17-AAG in plasma, day 1 (17-AAG alone), 200 mg/m^2, n=3
[8] = 17-AAG in plasma, day 4 (17-AAG+PS-341), 150 mg/m^2, n=8
[9] = 17-AAG in plasma, day 4 (17-AAG+PS-341), 200 mg/m^2, n=3
[10] = 17-AAG, day 1 (17-AAG alone), 150 mg/m^2, n=8
[11] = 17-AAG, day 1 (17-AAG alone), 200 mg/m^2, n=3
[12] = 17-AAG, day 4 (17-AAG+PS-341), 150 mg/m^2, n=8
[13] = 17-AAG, day 4 (17-AAG+PS-341), 200 mg/m^2, n=3

Structure (SMILES): CO[C@H]1/C=C\C=C(/C)C(=O)NC2=CC(=O)C(N)=C(C[C@@H](C)C[C@H](OC)[C@H](O)[C@@H](C)/C=C(\C)[C@@H]1OC(N)=O)C2=O [17-AG, 17-amino-17-demethoxygeldanamycin]
- AUC exposed ([1]; day 1 (17-AAG alone), 17-AAG 150 mg/m^2, n=8): 12205 ± 8530 ng·h/mL
- AUC exposed ([1]; day 1 (17-AAG alone), 17-AAG 200 mg/m^2, n=3): 18959 ± 3169 ng·h/mL
- AUC exposed ([1]; day 4 (17-AAG+PS-341), 17-AAG 150 mg/m^2, n=8): 14468 ± 7179 ng·h/mL
- AUC exposed ([1]; day 4 (17-AAG+PS-341), 17-AAG 200 mg/m^2, n=3): 22403 ± 1036 ng·h/mL
- change in 17-AG clearance on co-administration with bortezomib ([1]; day 4 (17-AAG+bortezomib) vs day 1 (17-AAG alone), all 11 patients, p=0.005): decrease in clearance
- change in 17-AG AUC on co-administration with bortezomib ([1]; day 4 (17-AAG+bortezomib) vs day 1 (17-AAG alone), all 11 patients, p=.032): increase in AUC
- Cmax ([1]; metabolite 17-AG in plasma, day 1 (17-AAG alone), 17-AAG 150 mg/m^2, n=8): 821 ± 450 ng/mL
- Cmax ([1]; metabolite 17-AG in plasma, day 1 (17-AAG alone), 17-AAG 200 mg/m^2, n=3): 1300 ± 421 ng/mL
- Cmax ([1]; metabolite 17-AG in plasma, day 4 (17-AAG+PS-341), 17-AAG 150 mg/m^2, n=8): 1025 ± 445 ng/mL
- Cmax ([1]; metabolite 17-AG in plasma, day 4 (17-AAG+PS-341), 17-AAG 200 mg/m^2, n=3): 1412 ± 26 ng/mL
- Clearance ([1]; metabolite 17-AG, apparent clearance, day 1 (17-AAG alone), 17-AAG 150 mg/m^2, n=8): 41.35 ± 26.48 L/h
- Clearance ([1]; metabolite 17-AG, apparent clearance, day 1 (17-AAG alone), 17-AAG 200 mg/m^2, n=3): 23.07 ± 12.01 L/h
- Clearance ([1]; metabolite 17-AG, apparent clearance, day 4 (17-AAG+PS-341), 17-AAG 150 mg/m^2, n=8): 29.87 ± 23.29 L/h
- Clearance ([1]; metabolite 17-AG, apparent clearance, day 4 (17-AAG+PS-341), 17-AAG 200 mg/m^2, n=3): 14.86 ± 1.55 L/h
- AUCtot [1, 2]: 6334 ± 6244 ng·h/mL
- Terminal T1/2 [1, 2]: 11.16 ± 1.40 h
- Tmax [1, 2]: 1.53 ± 0.42 h
- AUCtot [1, 3]: 9957 ± 4258 ng·h/mL
- Terminal T1/2 [1, 3]: 7.92 ± 1.76 h
- Tmax [1, 3]: 1.53 ± 0.46 h
- AUCtot [1, 4]: 7751 ± 5028 ng·h/mL
- Terminal T1/2 [1, 4]: 10.53 ± 2.20 h
- Tmax [1, 4]: 1.85 ± 1.10 h
- AUCtot [1, 5]: 13261 ± 1216 ng·h/mL
- Terminal T1/2 [1, 5]: 7.47 ± 0.73 h
- Tmax [1, 5]: 3.72 ± 0.64 h

Structure (SMILES): CC(C)C[C@H](NC(=O)[C@H](Cc1ccccc1)NC(=O)c1cnccn1)B(O)O [bortezomib]
- metabolizing enzyme (cytochrome P450 3A4): metabolized by cytochrome P450 3A4

Structure (SMILES): C=CCNC1=C2C[C@@H](C)C[C@H](OC)[C@H](O)[C@@H](C)/C=C(\C)[C@H](OC(N)=O)[C@@H](OC)/C=C\C=C(/C)C(=O)NC(=CC1=O)C2=O [17-AAG, 17-Allylamino-17-demethoxygeldanamycin, reference compound]
- Cmax ([1]; 17-AAG in plasma, cycle 1 day 1 (17-AAG alone), 17-AAG 200 mg/m^2 IV, n=3): 3814 ± 578 ng/mL
- AUCtot [1, 6]: 5871 ± 2508 ng·h/mL
- Terminal T1/2 [1, 6]: 4.77 ± 1.15 h
- AUCtot [1, 7]: 9002 ± 1970 ng·h/mL
- Terminal T1/2 [1, 7]: 4.59 ± 0.21 h
- AUCtot [1, 8]: 6717 ± 2631 ng·h/mL
- Terminal T1/2 [1, 8]: 4.04 ± 0.86 h
- AUCtot [1, 9]: 9142 ± 1358 ng·h/mL
- Terminal T1/2 [1, 9]: 3.78 ± 1.29 h
- Clearance [1, 10]: 29.36 ± 11.11 L/h
- Vss [1, 10]: 98.10 ± 37.46 L
- Clearance [1, 11]: 22.92 ± 4.89 L/h
- Vss [1, 11]: 73.30 ± 16.81 L
- Clearance [1, 12]: 24.94 ± 8.10 L/h
- Vss [1, 12]: 82.36 ± 19.91 L
- Clearance [1, 13]: 21.92 ± 3.91 L/h
- Vss [1, 13]: 86.83 ± 24.37 L

Structure (SMILES): CO[C@H]1/C=C\C=C(/C)C(=O)NC2=CC(=O)C(NCCN(C)C)=C(C[C@@H](C)C[C@H](OC)[C@H](O)[C@@H](C)/C=C(\C)[C@@H]1OC(N)=O)C2=O [alvespimycin]
- clinical response (acute myeloid leukemia): three patients achieved a complete remission with incomplete count recovery
